Laboratory results from patent publication US12365696B2, “Small-molecule focal adhesion kinase (FAK) inhibitors” (DANA-FARBER CANCER INSTITUTE, INC., priority 2019, dated 2025).

Experiments:
Assay in all cases: KINOMEscan
Format in all cases: binding
FLT3-autoinhibited = FLT3-autoinhibited (Homo sapiens (Human), UniProt P36888); conditions: 10000 nM, read-out: Percent Control
FLT3(R834Q) = FLT3(R834Q) (Homo sapiens (Human), UniProt P36888, R834Q); conditions: 10000 nM, read-out: Percent Control
NEK1 = NEK1 (Homo sapiens (Human), UniProt Q96PY6); conditions: NEK1, 10000 nM; read-out: Percent Control
RAF1 = RAF1 (Homo sapiens (Human), UniProt P04049); conditions: RAF1, 10000 nM; read-out: Percent Control
MYLK4 = MYLK4 (Homo sapiens (Human), UniProt Q86YV6); conditions: MYLK4, 10000 nM; read-out: Percent Control
CAMK1G = CAMK1G (Homo sapiens (Human), UniProt Q96NX5); conditions: 10000 nM, read-out: Percent Control
TAOK3 = TAOK3 (Homo sapiens (Human), UniProt Q9H2K8); conditions: TAOK3, 10000 nM; read-out: Percent Control
DCAMKL3 = DCAMKL3 (Homo sapiens (Human), UniProt Q9C098); conditions: DCAMKL3, 10000 nM; read-out: Percent Control
MLCK = MLCK (Homo sapiens (Human), UniProt Q32MK0); conditions: 10000 nM, read-out: Percent Control
BMPR2 = BMPR2 (Homo sapiens (Human), UniProt Q13873); conditions: BMPR2, 10000 nM; read-out: Percent Control
SGK = SGK (Homo sapiens (Human), UniProt O00141); conditions: 10000 nM, read-out: Percent Control
MST1R = MST1R (Homo sapiens (Human), UniProt Q04912); conditions: 10000 nM, read-out: Percent Control
[1] = target: EGFR(L747-S752del, P753S) (Homo sapiens (Human), UniProt P00533, DEL747-752/P753S); conditions: 10000 nM, read-out: Percent Control
MEK2 = MEK2 (Homo sapiens (Human), UniProt P36507); conditions: MEK2, 10000 nM; read-out: Percent Control
ROCK2 = ROCK2 (Homo sapiens (Human), UniProt O75116); conditions: ROCK2, 10000 nM; read-out: Percent Control
PIM2 = PIM2 (Homo sapiens (Human), UniProt Q9P1W9); conditions: PIM2, 10000 nM; read-out: Percent Control
EGFR(L747-T751del, Sins) = EGFR(L747-T751del, Sins) (Homo sapiens (Human), UniProt P00533, DEL747-751/INS746S); conditions: 10000 nM, read-out: Percent Control
MST2 = MST2 (Homo sapiens (Human), UniProt Q13188); conditions: MST2, 10000 nM; read-out: Percent Control
DLK = DLK (Homo sapiens (Human), UniProt Q12852); conditions: 10000 nM, read-out: Percent Control
YSK1 = YSK1 (Homo sapiens (Human), UniProt O00506); conditions: YSK1, 10000 nM; read-out: Percent Control
CDK8 = CDK8 (Homo sapiens (Human), UniProt P49336); conditions: CDK8, 10000 nM; read-out: Percent Control
LKB1 = LKB1 (Homo sapiens (Human), UniProt Q15831); conditions: LKB1, 10000 nM; read-out: Percent Control
MEK1 = MEK1 (Homo sapiens (Human), UniProt Q02750); conditions: MEK1, 10000 nM; read-out: Percent Control
ULK2 = ULK2 (Homo sapiens (Human), UniProt Q8IYT8); conditions: ULK2, 10000 nM; read-out: Percent Control
MINK = MINK (Homo sapiens (Human), UniProt Q8N4C8); conditions: 10000 nM, read-out: Percent Control
NEK10 = NEK10 (Homo sapiens (Human), UniProt Q6ZWH5); conditions: NEK10, 10000 nM; read-out: Percent Control
EPHA1 = EPHA1 (Homo sapiens (Human), UniProt P21709); conditions: EPHA1, 10000 nM; read-out: Percent Control
[2] = target: RPS6KA4(Kin.Dom.1-N-terminal) (Homo sapiens (Human), UniProt O75676); conditions: 10000 nM, read-out: Percent Control
GRK7 = GRK7 (Homo sapiens (Human), UniProt Q8WTQ7); conditions: GRK7, 10000 nM; read-out: Percent Control
WEE1 = WEE1 (Homo sapiens (Human), UniProt P30291); conditions: WEE1, 10000 nM; read-out: Percent Control
HIPK2 = HIPK2 (Homo sapiens (Human), UniProt Q9H2X6); conditions: HIPK2, 10000 nM; read-out: Percent Control
MET(M1250T) = MET(M1250T) (Homo sapiens (Human), UniProt P08581, M1250T); conditions: 10000 nM, read-out: Percent Control
IKK-epsilon = IKK-epsilon (Homo sapiens (Human), UniProt Q14164); conditions: 10000 nM, read-out: Percent Control
FES = FES (Homo sapiens (Human), UniProt P07332); conditions: 10000 nM, read-out: Percent Control

Chain of MLCK (Q32MK0 whole entry): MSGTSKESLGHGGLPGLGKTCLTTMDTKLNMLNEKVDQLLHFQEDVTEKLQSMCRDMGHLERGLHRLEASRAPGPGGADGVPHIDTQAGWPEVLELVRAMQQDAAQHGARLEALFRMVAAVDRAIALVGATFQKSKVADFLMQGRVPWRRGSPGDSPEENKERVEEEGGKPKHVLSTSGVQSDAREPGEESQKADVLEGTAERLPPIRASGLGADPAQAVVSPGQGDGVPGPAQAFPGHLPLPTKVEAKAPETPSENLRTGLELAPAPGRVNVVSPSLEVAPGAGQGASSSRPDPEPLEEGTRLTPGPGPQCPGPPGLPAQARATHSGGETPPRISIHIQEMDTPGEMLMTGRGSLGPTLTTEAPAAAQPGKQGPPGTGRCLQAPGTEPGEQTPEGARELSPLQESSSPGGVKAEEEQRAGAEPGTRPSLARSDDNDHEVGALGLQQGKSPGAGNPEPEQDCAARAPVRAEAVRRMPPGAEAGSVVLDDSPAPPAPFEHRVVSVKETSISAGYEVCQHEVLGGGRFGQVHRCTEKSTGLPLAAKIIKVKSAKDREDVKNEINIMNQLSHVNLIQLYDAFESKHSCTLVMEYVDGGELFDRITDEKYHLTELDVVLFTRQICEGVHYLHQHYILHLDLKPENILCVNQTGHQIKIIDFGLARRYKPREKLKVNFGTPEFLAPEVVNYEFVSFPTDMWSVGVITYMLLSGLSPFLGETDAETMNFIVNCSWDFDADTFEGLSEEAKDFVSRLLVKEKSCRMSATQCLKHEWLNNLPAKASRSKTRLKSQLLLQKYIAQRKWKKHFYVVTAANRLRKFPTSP
Chain of NEK10 (Q6ZWH5 whole entry): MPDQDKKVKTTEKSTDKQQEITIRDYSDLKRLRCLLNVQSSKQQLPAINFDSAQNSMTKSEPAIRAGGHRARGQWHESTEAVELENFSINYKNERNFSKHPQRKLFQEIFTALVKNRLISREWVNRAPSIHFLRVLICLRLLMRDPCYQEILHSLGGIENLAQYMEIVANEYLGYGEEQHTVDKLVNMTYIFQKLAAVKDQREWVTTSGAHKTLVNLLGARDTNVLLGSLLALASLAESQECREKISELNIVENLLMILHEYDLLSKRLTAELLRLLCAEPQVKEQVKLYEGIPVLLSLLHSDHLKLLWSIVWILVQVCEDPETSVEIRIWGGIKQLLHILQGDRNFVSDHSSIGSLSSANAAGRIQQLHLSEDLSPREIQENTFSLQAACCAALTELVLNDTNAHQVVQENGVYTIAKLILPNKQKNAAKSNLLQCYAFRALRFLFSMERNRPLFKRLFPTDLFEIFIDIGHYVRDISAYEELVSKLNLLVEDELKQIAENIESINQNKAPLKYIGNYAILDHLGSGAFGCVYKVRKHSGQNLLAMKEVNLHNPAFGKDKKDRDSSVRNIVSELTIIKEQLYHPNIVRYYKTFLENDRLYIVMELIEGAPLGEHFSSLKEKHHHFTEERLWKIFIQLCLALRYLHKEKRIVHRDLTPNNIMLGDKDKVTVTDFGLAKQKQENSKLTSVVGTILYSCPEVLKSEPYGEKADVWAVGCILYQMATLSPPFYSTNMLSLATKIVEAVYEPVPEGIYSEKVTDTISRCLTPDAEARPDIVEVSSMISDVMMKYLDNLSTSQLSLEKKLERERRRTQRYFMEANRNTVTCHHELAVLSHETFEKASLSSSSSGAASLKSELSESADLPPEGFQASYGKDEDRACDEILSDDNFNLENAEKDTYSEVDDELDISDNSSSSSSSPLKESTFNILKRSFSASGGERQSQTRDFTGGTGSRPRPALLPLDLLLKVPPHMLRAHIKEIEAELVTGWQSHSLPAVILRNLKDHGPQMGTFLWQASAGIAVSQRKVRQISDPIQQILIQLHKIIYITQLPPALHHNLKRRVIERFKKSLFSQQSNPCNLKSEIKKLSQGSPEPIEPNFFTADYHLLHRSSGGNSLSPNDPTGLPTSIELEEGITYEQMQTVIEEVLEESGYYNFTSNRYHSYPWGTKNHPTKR
Chain of EPHA1 (P21709 26-976): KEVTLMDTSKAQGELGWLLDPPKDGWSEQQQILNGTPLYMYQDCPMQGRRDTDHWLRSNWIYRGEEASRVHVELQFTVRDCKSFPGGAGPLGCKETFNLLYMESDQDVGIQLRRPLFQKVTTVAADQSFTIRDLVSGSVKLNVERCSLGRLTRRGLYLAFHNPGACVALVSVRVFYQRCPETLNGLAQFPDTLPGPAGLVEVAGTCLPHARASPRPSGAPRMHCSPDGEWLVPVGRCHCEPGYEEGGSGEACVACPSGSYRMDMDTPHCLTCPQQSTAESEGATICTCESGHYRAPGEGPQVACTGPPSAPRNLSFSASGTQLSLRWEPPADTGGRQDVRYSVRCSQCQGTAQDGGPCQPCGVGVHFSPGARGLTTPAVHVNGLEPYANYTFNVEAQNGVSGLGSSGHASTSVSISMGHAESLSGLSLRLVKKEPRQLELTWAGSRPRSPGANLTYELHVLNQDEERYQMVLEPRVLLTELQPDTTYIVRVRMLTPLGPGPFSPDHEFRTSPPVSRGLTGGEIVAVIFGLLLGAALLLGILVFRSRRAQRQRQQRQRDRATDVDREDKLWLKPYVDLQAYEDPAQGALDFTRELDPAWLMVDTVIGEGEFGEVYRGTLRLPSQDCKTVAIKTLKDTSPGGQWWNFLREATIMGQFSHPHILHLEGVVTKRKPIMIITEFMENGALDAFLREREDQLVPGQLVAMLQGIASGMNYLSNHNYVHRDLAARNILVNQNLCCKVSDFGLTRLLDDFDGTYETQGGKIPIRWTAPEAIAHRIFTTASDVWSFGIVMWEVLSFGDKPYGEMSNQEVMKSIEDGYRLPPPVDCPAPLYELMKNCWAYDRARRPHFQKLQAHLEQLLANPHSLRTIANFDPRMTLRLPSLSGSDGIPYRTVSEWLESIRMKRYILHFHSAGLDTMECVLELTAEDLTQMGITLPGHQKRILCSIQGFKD
Chain of MEK1 (Q02750 whole entry): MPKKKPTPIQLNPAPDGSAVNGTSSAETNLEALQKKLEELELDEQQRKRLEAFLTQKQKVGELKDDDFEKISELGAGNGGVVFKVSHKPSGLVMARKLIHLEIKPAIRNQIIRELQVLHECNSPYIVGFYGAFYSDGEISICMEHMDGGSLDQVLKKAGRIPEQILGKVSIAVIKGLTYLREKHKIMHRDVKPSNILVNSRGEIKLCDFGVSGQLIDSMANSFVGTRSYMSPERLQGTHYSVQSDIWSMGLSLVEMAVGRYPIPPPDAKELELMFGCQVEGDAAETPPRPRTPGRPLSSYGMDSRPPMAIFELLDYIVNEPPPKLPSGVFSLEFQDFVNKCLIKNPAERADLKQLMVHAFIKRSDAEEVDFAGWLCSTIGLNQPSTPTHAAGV
Chain of TAOK3 (Q9H2K8 whole entry): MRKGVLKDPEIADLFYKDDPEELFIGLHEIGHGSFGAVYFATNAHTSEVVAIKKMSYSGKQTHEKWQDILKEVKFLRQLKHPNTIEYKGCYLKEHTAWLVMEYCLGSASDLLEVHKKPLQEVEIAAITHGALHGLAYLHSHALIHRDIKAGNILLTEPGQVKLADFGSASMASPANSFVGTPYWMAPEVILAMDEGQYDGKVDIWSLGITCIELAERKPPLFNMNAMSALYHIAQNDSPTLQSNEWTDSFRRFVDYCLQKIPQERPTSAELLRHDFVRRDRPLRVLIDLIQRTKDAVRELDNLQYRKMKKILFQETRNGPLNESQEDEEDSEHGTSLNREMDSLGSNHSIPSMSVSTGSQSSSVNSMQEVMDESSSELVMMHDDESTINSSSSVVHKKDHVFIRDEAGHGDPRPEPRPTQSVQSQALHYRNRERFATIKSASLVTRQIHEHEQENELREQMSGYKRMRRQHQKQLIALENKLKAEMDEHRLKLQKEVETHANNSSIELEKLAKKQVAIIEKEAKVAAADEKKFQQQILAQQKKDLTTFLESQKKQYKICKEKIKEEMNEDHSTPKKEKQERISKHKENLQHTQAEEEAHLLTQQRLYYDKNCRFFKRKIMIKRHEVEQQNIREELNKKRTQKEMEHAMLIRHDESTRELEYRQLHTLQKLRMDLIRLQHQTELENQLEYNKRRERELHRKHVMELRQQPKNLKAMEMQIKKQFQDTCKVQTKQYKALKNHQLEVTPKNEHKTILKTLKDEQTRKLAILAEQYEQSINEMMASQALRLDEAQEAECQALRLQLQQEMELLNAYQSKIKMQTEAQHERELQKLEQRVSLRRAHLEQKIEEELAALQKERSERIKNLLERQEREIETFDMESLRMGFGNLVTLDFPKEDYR
Chain of MYLK4 (Q86YV6 whole entry): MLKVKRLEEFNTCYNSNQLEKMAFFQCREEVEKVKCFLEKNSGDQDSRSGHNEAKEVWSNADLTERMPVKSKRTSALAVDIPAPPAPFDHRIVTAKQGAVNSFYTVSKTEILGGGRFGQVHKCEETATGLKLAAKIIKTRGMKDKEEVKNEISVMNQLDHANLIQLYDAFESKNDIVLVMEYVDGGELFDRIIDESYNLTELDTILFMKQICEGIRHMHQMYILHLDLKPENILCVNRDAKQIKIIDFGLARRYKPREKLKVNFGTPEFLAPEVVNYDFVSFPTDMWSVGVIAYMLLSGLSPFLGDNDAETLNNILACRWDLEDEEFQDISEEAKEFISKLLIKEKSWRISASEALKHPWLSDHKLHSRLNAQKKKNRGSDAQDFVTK
Chain of LKB1 (Q15831 whole entry): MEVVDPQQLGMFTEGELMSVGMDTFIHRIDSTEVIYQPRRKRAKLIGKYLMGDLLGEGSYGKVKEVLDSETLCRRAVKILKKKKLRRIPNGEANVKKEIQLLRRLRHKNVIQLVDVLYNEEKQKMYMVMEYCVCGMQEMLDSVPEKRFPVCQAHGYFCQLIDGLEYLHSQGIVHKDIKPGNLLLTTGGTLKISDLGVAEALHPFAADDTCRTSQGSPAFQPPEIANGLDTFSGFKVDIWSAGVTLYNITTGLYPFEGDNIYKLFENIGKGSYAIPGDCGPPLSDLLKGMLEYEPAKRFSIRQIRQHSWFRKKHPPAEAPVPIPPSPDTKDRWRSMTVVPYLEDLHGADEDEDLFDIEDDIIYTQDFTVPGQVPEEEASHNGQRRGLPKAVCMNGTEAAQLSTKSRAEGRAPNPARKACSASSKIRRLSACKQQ

Row | Compound | remaining binding at 10 µM (FLT3-autoinhibited) | remaining binding at 10 µM (FLT3(R834Q)) | remaining binding at 10 µM (NEK1) | remaining binding at 10 µM (RAF1) | remaining binding at 10 µM (MYLK4) | remaining binding at 10 µM (CAMK1G) | remaining binding at 10 µM (TAOK3) | remaining binding at 10 µM (DCAMKL3) | remaining binding at 10 µM (MLCK) | remaining binding at 10 µM (BMPR2) | remaining binding at 10 µM (SGK) | remaining binding at 10 µM (MST1R) | remaining binding at 10 µM [1] | remaining binding at 10 µM (MEK2) | remaining binding at 10 µM (ROCK2) | remaining binding at 10 µM (PIM2) | remaining binding at 10 µM (EGFR(L747-T751del, Sins)) | remaining binding at 10 µM (MST2) | remaining binding at 10 µM (DLK) | remaining binding at 10 µM (YSK1) | further results
1 | COc1cc(N2CCC(N3CCN(C)CC3)CC2)ccc1Nc1ncc2c(n1)N(C)c1sc(C)nc1C(=O)N2 [Compound 3, 6-((2-methoxy-4-(4-(4-methylpiperazin-1-yl)piperidin-1-yl)phenyl)amino)-2,4-dimethyl-4,9-dihydro-10H-pyrimido[5,4-b]thiazolo[5,4-e][1,4]diazepin-10-one] | 100% | 100% | 78% | 85% | 77% | 74% | 100% | 81% | 94% | 100% | 100% | 90% | 99% | 100% | 100% | 92% | 52% | 100% | 90% | 79% | remaining binding at 10 µM (CDK8): 78%; remaining binding at 10 µM (LKB1): 44%; remaining binding at 10 µM (MEK1): 100%; remaining binding at 10 µM (ULK2): 100%; remaining binding at 10 µM (MINK): 100%; remaining binding at 10 µM (NEK10): 100%; remaining binding at 10 µM (EPHA1): 54%; remaining binding at 10 µM [2]: 100%; remaining binding at 10 µM (GRK7): 97%; remaining binding at 10 µM (WEE1): 88%; remaining binding at 10 µM (HIPK2): 100%; remaining binding at 10 µM (MET(M1250T)): 82%; remaining binding at 10 µM (IKK-epsilon): 78%; remaining binding at 10 µM (FES): 81%
2 | COc1cc(N2CCC(N3CCN(C)CC3)CC2)ccc1Nc1ncc2c(n1)N(C)c1sc(C)nc1C(=O)N2C [Compound 5, 6-((2-methoxy-4-(4-(4-methylpiperazin-1-yl)piperidin-1-yl)phenyl)amino)-2,4,9-trimethyl-4,9-dihydro-10H-pyrimido[5,4-b]thiazolo[5,4-e][1,4]diazepin-10-one] | 99% | 81% | 97% | 95% | 100% | 95% | 77% | 86% | 100% | 100% | 100% | 100% | 91% | 99% | 100% | 100% | 100% | 100% | 86% | 100% | remaining binding at 10 µM (CDK8): 100%; remaining binding at 10 µM (LKB1): 100%; remaining binding at 10 µM (MEK1): 95%; remaining binding at 10 µM (ULK2): 81%; remaining binding at 10 µM (MINK): 100%; remaining binding at 10 µM (NEK10): 94%; remaining binding at 10 µM (EPHA1): 100%; remaining binding at 10 µM [2]: 100%; remaining binding at 10 µM (GRK7): 100%; remaining binding at 10 µM (WEE1): 98%; remaining binding at 10 µM (HIPK2): 100%; remaining binding at 10 µM (MET(M1250T)): 100%; remaining binding at 10 µM (IKK-epsilon): 100%; remaining binding at 10 µM (FES): 97%
